Values joined by “and” are separate entries in the source; they are usually repeats but may differ in a detail not shown here. Equal entries are not always repeated. Where two headings read alike, the source gives them in different places. Marks after values point to notes of the source that are not given here.
What was measured:
[1] = tested on: right ventricle of PAH rats; assay: Right ventricle mtDNA copy number, radical scavenging, lipid peroxidation and ATP; conditions: ~6 mg·kg^−1·day^−1 i.p. minipump, 28 days
PAH rats = assay: In-life data (body weight, discomfort, mortality) during chronic SUL-150 administration; assay type: in vivo, rat; conditions: ~6 mg·kg^−1·day^−1 i.p. minipump, 28 days
Method: (§1) The administration of vehicle and SUL-150 started 7 days post-monocrotaline injection and was performed by the i.p. implantation of osmotic minipumps (Alzet model #2004, Durect Corp., Cupertino, CA, USA) at the time of aortocaval shunt placement. The Lynch coil method was used to circumvent compatibility issues with the osmotic minipump reservoir as described previously. Vehicle (dimethyl sulfoxide (DMSO) or SUL-150 ((R)-(6-hydroxy-2,5,7,8-tetramethylchroman-2-yl)(piperazin-1-yl)methanone, 0.9 M in DMSO, Sulfateq BV, Groningen, The Netherlands) was administered at a flow rate of 0.25 µL·h^−1, accumulating to an approximate dose of 6 mg·kg^−1·day^−1 SUL-150 in a 300 g rat. Animals were weighed, watched for dyspnea, cyanosis, and oedema, and sacrificed preterm when a 15% weight loss or debilitating dyspnea occurred.
Three rats died during the study without a clear cause at necropsy and were excluded (sham control (n = 1) and vehicle-treated (n = 2) rats). At sacrifice, 7 rats were excluded from the study because of procedural motives: in two rats (vehicle (n = 1) and SUL-150-treated (n = 1) rats), adequate AC shunt could not be confirmed. In two other rats (both SUL-150-treated rats), the osmotic pumps were blocked by adipose deposits, limiting their function. Three rats died during cardiac function assessment (sham control (n = 2) and SUL-150 treated (n = 1) rats). Twenty rats were included in the study (sham control (n = 7), vehicle-treated (n = 7), and SUL-150-treated (n = 6) rats.

[2] = tested on: neonatal rat cardiomyocytes; assay: In vitro hypertrophy reporter assay in phenylephrine-treated cardiomyocytes; assay type: cell-based
Method: Cultures of neonatal rat cardiomyocytes were prepared from 1–3-day-old Wistar rats and adenovirally transformed with hypertrophy reporter construct as described elsewhere. Cardiomyocytes were pre-incubated with SUL-150 (3 × 10^−5 M) or vehicle for 30 min and subsequently stimulated with phenylephrine in the dose range of 10^−8 to 10^−4 M for 24 h. Cells were lysed in passive lysis buffer (Promega, Madison, WI, USA), and […] intensity of the lysate was recorded in an EnVision 2102 plate reader (Perkin Elmer, Waltham, MA, USA).

pulmonary artery rings = assay: Ex vivo myography of pulmonary artery rings, acute SUL-150 pre-incubation, phenylephrine-induced vasoconstriction; parameters: species or system rat; conditions: 10^−4 M SUL-150 pre-incubation
Method: The fourth-degree branching intralobar pulmonary arteries were carefully dissected under a Leica S4E stereomicroscope as described before. Arterial ring segments (2 mm length) were mounted in a Mulvany-type wire myograph system (model #610M, Danish Myo Technology, Aarhus, Denmark) using Ø40 µm steel wire. Rings were preserved in myography chambers filled with aerated Krebs buffer (pH 7.4) at 37 °C. After 20 min equilibration, rings were stretched to 1.8 kPa using the DMT Normalization Procedure and allowed to equilibrate for an additional 20 min. Analogue–digital signal conversion was performed using PowerLab 8/30, and a myogram was recorded in PowerLab Chart v 5.3 (AD Instruments, Oxford, UK). To assess the acute effects of SUL-150 on vasoconstriction, arterial rings were pre-constricted with 60 mM KCl and, following washout and stabilization, incubated with vehicle (0.1% DMSO) or SUL-150 (10^−4 M) for 20 min. Next, constriction responses to phenylephrine (phenylephrine, Sigma-Aldrich, St. Louis, MO, USA) were recorded in the dose range of 3 × 10^−9 to 3 × 10^−5 M. To assess the chronic effects of SUL-150 treatment, a similar protocol was followed, leaving out the preincubation with vehicle or SUL-150. Isometric responses were calculated as % of maximal KCl-induced constriction, and dose–response curves were recorded to determine the efficacy (Emax) and potency (EC50) of phenylephrine to induce vasoconstriction.

[3] = SUL-150 levels in plasma, lung and right ventricle (LC-MS/MS); assay type: in vivo, rat; conditions: for concentration at 4 weeks / concentration at 28 days: rat
Method: as §1
Measurement of SUL-150 levels in plasma and tissue homogenates was performed by liquid chromatography and mass spectrometry. Plasma or tissue homogenates were supplemented with acetonitrile and sonicated, followed by centrifugation at 14,000× g to liberate SUL-150 from the samples and pellet protein precipitates. Tissue samples were subjected to additional solid-phase extraction using an SPEStrata C-18 cartridge (100 mg, 55 µm, 70 Å, Phenomenex, Torrance, CA, USA), prepared with 1 mL methanol followed by 1 mL water. Analytes were washed by methanol (10%) and eluted in acetonitrile/methanol (3:7 v/v). Eluate was concentrated, and water (20%) was added. Analyte recovery was >95% for plasma samples and >70% for tissue. Liquid chromatography of the samples was performed on a 1260 Infinity HPLC device (Agilent Tech., Santa Clara, CA, USA) using a ZORBAX Eclipse AAA column (3.0 × 150 mm, particle size 3.5 µm) in a reversed-phase setup and a flow rate of 0.5 mL·min^−1 with gradient elution. Solvents consisted of methanol (6%)/acetonitrile (4%) acetate and methanol (54%)/acetonitrile (36%) in water with 0.1% ammonium for solvents A and B, respectively. MS/MS detection was performed on a QQQ 6460 mass spectrometer (Agilent Tech., Santa Clara, CA, USA). Detection was set for a quantifier ion (205.1, CE 25 V) and qualifier ion (190.1, CE 40 V). Gas temperature for MS was set to 300 °C and gas flow was set to 6 L·min^−1. Quantification of the samples was performed using an external standard for calibration. LOD and LOQ were 5 pg·mL^−1 and 17 pg·mL^−1, respectively.

[4] = individual PAH rats at sacrifice, ~6 mg·kg^−1·day^−1 i.p. minipump
[5] = plasma, ip, 6 mg·kg^−1·day^−1, mean of PAH rats at sacrifice, ~6 mg·kg^−1·day^−1 i.p. minipump, read-out: mean concentration of SUL-150 in blood plasma

Cc1c(C)c2c(c(C)c1O)CC[C@](C)(C(=O)N1CCNCC1)O2 [SUL-150, (R)-(6-hydroxy-2,5,7,8-tetramethylchroman-2-yl)(piperazin-1-yl)methanone]
ATP level of the right ventricle [1]: 272.2 ± 26.6 pmol/mg | endogenous radical scavenging activity in right ventricle ([1]; result in words): maintained | lipid peroxidation level in right ventricle ([1]; result in words): decreased lipid peroxidation level to those of sham rats | Dyspnea frequency (PAH rats): 33.3 % of rats | Edema frequency (PAH rats): 0 % of rats and 0 ^a,b % of rats | End weight (day 32–33) (PAH rats): 319.3 ± 12.0 ^a g | Mortality (%) (PAH rats): 0 (0%) ^a,b | number of rats with dyspnea (PAH rats): 2 n | survival rate (PAH rats): 100% | Emax of phenylephrine in hypertrophy reporter with SUL-150 co-treatment ([2]; SUL-150 3 × 10^−5 M pre-incubated 30 min, phenylephrine 24 h): 2.36 RFU | reduction in phenylephrine efficacy in hypertrophy reporter ([2]; SUL-150 3 × 10^−5 M versus vehicle): 40% | Emax of phenylephrine-induced vasoconstriction after SUL-150 pre-incubation (pulmonary artery rings; pulmonary artery rings of PAH rats (day 21 post-MCT)): 11.03 % of max | Emax of phenylephrine-induced vasoconstriction after SUL-150 pre-incubation (pulmonary artery rings; pulmonary artery rings of sham rats, % of maximal KCl-induced constriction): 15.6 % of max | SUL-150 concentration, Lung Tissue [3, 4]: 35.56 pg/mg and 10.21 pg/mg and 14.26 pg/mg and 25.74 pg/mg and 26.09 pg/mg and 53.94 pg/mg | SUL-150 concentration, Plasma [3, 4]: 93.16 ng/mL and 3.31 ng/mL and 18.36 ng/mL and 4.42 ng/mL and 18.81 ng/mL and 43.90 ng/mL | SUL-150 concentration, Right Ventricle [3, 4]: 13.49 pg/mg and 29.91 pg/mg and 23.67 pg/mg and 16.80 pg/mg and 21.76 pg/mg and 143.68 pg/mg | concentration at 4 weeks ([3]; lung, ip, 6 mg·kg^−1·day^−1, mean of PAH rats at sacrifice, ~6 mg·kg^−1·day^−1 i.p. minipump, read-out: mean concentration of SUL-150 in lung): 27.6 ± 15.8 ng/g | concentration at 28 days ([3]; plasma, intraperitoneal, 6 mg·kg^−1·day^−1, range over PAH rats at sacrifice, read-out: plasma level of SUL-150, range): 3.3 to 93.2 ng/mL | concentration at 4 weeks [3, 5]: 30.3 ± 34.1 ng/mL | concentration at 28 days [3, 5]: 30.3 ng/mL | concentration at 4 weeks ([3]; right ventricle, ip, 6 mg·kg^−1·day^−1, mean of PAH rats at sacrifice, ~6 mg·kg^−1·day^−1 i.p. minipump, read-out: mean concentration of SUL-150 in right ventricle): 41.5 ± 50.4 ng/g
